The results in this text go back to patent publication US20110003017A1, “Method for Preparation of Extract from Angelica Gigas Nakai and Composition Containing the Extract” (AZI Co., Ltd., priority 2007, published 2011).

A short description of this experiment: antioxidant effects (electron donating ability) using DPPH. Type of experiment: biochemical. The note with it: DPPH radical scavenging, absorbance at 520 nm. How it is done:
The antioxidant effects were determined using 1,1-diphenyl-2-picryl hydrazyl (DPPH). Analysis of the extract using DPPH is performed by the following method.
DPPH having radicals is mostly used for determining radical scavenging performance. DPPH was purchased from Sigma. The following procedures were carried out:
1) 2 ml of 0.1 mM […] (Sigma, D-9132) in ethanol was added to 2 ml of a sample dissolved in ethanol;
2) After mixing the solution for 10 minutes, the mixture was left in a dark place;
3) Absorbance of the resultant product at 520 nm was measured;
4) Calculation of antioxidant efficacy (electron donating ability),
EDA (electron donating ability)=(Cabs−Sabs)/Cabs*100
wherein • Cabs: absorbance of a negative control (which contains ethanol only instead of a sample), • Sabs: absorbance of a sample, and • Positive control: Vitamin E (Fluka, 95240) as a sample.
Antioxidant effects were compared between both extract powders obtained in Examples 1 and 2. Using DPPH analyzed and quantified EDA to determine the antioxidant effects of the extract powder. IC50 means a concentration required for scavenging 50% of radicals and it is determined that the antioxidant effects are enhanced as IC50 value is lowered.

For the substance Vitamin E, the “IC50 (concentration required for scavenging 50% of radicals)” value was found to be 15 µg/mL.
